According to the NIST ThermoML archive (doi:10.1016/j.jct.2006.02.001):

Experiments:
[1] = refractive index (Na D-line) (dimensionless); xn = mol fraction of the nth substance listed; settings: 101 kPa, Liquid
[2] = xn = mol fraction of the nth substance listed; settings: 101 kPa, Liquid

Cc1ccccc1C [1,2-dimethylbenzene] + COc1ccccc1
x2 = 0
Settings	mass density, 288.15 K [kg/m3]	mass density, 293.15 K [kg/m3]	mass density, 298.15 K [kg/m3]	mass density, 303.15 K [kg/m3]	refractive index, 288.15 K	refractive index, 293.15 K	refractive index, 298.15 K	refractive index, 303.15 K
[1]	–	–	–	–	1.5072	1.5047	1.5018	1.5
[2]	883.29	879.08	875.53	870.73	–	–	–	–

Cc1cc(C)cc(C)c1 [1,3,5-trimethylbenzene] + COc1ccccc1
Settings	mass density, 288.15 K [kg/m3]	mass density, 293.15 K [kg/m3]	mass density, 298.15 K [kg/m3]	mass density, 303.15 K [kg/m3]	refractive index, 288.15 K	refractive index, 293.15 K	refractive index, 298.15 K	refractive index, 303.15 K
[1], x2 = 0	–	–	–	–	1.5045	1.4993	1.4976	1.4948
[1], x2 = 0.1099	–	–	–	–	1.5063	1.5009	1.4991	1.4964
[1], x2 = 0.2441	–	–	–	–	1.5088	1.5029	1.5011	1.4984
[1], x2 = 0.3933	–	–	–	–	1.5116	1.5054	1.5033	1.5007
[1], x2 = 0.509	–	–	–	–	1.5142	1.5073	1.5052	1.5026
[1], x2 = 0.672	–	–	–	–	1.5175	1.5103	1.5079	1.5054
[1], x2 = 0.749	–	–	–	–	1.5193	1.5117	1.5093	1.5068
[1], x2 = 0.8397	–	–	–	–	1.5214	1.5136	1.511	1.5086
[1], x2 = 0.895	–	–	–	–	1.5228	1.5147	1.5121	1.5097
[1], x2 = 0.967	–	–	–	–	1.5247	1.5162	1.5135	1.5111
[2], x2 = 0	869.17	865.07	861.06	856.95	–	–	–	–
[2], x2 = 0.1099	880.36	876.24	872.21	868.07	–	–	–	–
[2], x2 = 0.2441	894.89	890.7	886.62	882.42	–	–	–	–
[2], x2 = 0.3933	912.23	907.95	903.79	899.5	–	–	–	–
[2], x2 = 0.509	926.57	922.2	917.98	913.64	–	–	–	–
[2], x2 = 0.672	948.28	943.8	939.52	935.05	–	–	–	–
[2], x2 = 0.749	959.22	954.69	950.34	945.87	–	–	–	–
[2], x2 = 0.8397	972.73	968.14	963.75	959.19	–	–	–	–
[2], x2 = 0.895	981.31	976.67	972.25	967.63	–	–	–	–
[2], x2 = 0.967	992.94	988.19	983.74	979.01	–	–	–	–

Cc1cccc(C)c1 [1,3-dimethylbenzene] + COc1ccccc1
x2 = 0
Settings	mass density, 288.15 K [kg/m3]	mass density, 293.15 K [kg/m3]	mass density, 298.15 K [kg/m3]	mass density, 303.15 K [kg/m3]	refractive index, 288.15 K	refractive index, 293.15 K	refractive index, 298.15 K	refractive index, 303.15 K
[1]	–	–	–	–	1.4997	1.4973	1.4944	1.4925
[2]	868.32	864.05	859.77	855.47	–	–	–	–

Cc1ccc(C)cc1 [1,4-dimethylbenzene] + COc1ccccc1
x2 = 0
Settings	mass density, 288.15 K [kg/m3]	mass density, 293.15 K [kg/m3]	mass density, 298.15 K [kg/m3]	mass density, 303.15 K [kg/m3]	refractive index, 288.15 K	refractive index, 293.15 K	refractive index, 298.15 K	refractive index, 303.15 K
[1]	–	–	–	–	1.4983	1.4958	1.4929	1.4915
[2]	865.25	860.92	856.62	852.25	–	–	–	–

COc1ccccc1 [anisole] + Cc1cc(C)cc(C)c1
x1 = 1
Settings	mass density, 288.15 K [kg/m3]	mass density, 293.15 K [kg/m3]	mass density, 298.15 K [kg/m3]	mass density, 303.15 K [kg/m3]	refractive index, 288.15 K	refractive index, 293.15 K	refractive index, 298.15 K	refractive index, 303.15 K
[1]	–	–	–	–	1.5256	1.5169	1.5141	1.5117
[2]	998.44	993.65	989.15	984.37	–	–	–	–

COc1ccccc1 [anisole] + Cc1ccc(C)cc1
Settings	mass density, 288.15 K [kg/m3]	mass density, 293.15 K [kg/m3]	mass density, 298.15 K [kg/m3]	mass density, 303.15 K [kg/m3]	refractive index, 288.15 K	refractive index, 293.15 K	refractive index, 298.15 K	refractive index, 303.15 K
[1], x1 = 0.0994	–	–	–	–	1.5007	1.4978	1.4949	1.4935
[1], x1 = 0.2471	–	–	–	–	1.5044	1.5006	1.4978	1.4963
[1], x1 = 0.3745	–	–	–	–	1.5077	1.5032	1.5004	1.4987
[1], x1 = 0.496	–	–	–	–	1.5109	1.5057	1.5029	1.5011
[1], x1 = 0.6455	–	–	–	–	1.5151	1.5089	1.5061	1.5042
[1], x1 = 0.7466	–	–	–	–	1.5179	1.5111	1.5084	1.5064
[1], x1 = 0.8972	–	–	–	–	1.5223	1.5145	1.5118	1.5097
[1], x1 = 0.949	–	–	–	–	1.5239	1.5157	1.5129	1.5107
[1], x1 = 0.9772	–	–	–	–	1.5248	1.5164	1.5136	1.5113
[1], x1 = 1	–	–	–	–	1.5256	1.5169	1.5141	1.5117
[2], x1 = 0.0994	877.53	873.32	869.02	864.71	–	–	–	–
[2], x1 = 0.2471	896.11	891.85	887.55	883.2	–	–	–	–
[2], x1 = 0.3745	912.51	908.14	903.84	899.38	–	–	–	–
[2], x1 = 0.496	928.51	924.05	919.74	915.2	–	–	–	–
[2], x1 = 0.6455	948.69	944.15	939.83	935.26	–	–	–	–
[2], x1 = 0.7466	962.63	958.06	953.71	949.14	–	–	–	–
[2], x1 = 0.8972	983.79	979.14	974.73	970.18	–	–	–	–
[2], x1 = 0.949	991.13	986.45	981.99	977.4	–	–	–	–
[2], x1 = 0.9772	995.17	990.43	985.95	981.34	–	–	–	–
[2], x1 = 1	998.44	993.65	989.15	984.37	–	–	–	–
